From patent US11679107B2 (Eisai R&D Management Co., Ltd., priority 2018, dated 2023)
Read-outs that look alike come from different tables or passages of the source.

Tests used:
[1] = in vivo; cited from earlier work
SF3b complexes = target: T1, SF3b complexes (Homo sapiens, UniProt O75533+Q7RTV0); experiment: Scintillation proximity assay (SPA) with [3H]-labelled pladienolide probe; type: binding; conditions: SF3B1 (WT); geometric mean; read-out: SPA-ATS GMean IC50 (nM) SF3B1 (WT)
T1 construct: endogenous in cells; host or cells: Nuclear extracts; A HeLa S3 extract preparation is described for the in vitro splicing assay
In short: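 SF3b complexes captured from nuclear extracts on anti-SF3B1 antibody SPA beads; test compounds pre-incubated 30 min before 2.5 nM [3H]-pladienolide probe added, then 30 min incubation. Bound probe read by scintillation; values from non-linear regression of concentration–response curves.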

[2] = system: Ad2 variant pre-mRNAs spliced in HeLa S3 nuclear extracts; experiment: In vitro splicing assay (IVS), RT-qPCR of spliced product; type: biochemical; conditions: for IC50: geometric mean; for Ratio Ad2.1/2.2: ratio of IVS IC50 Ad2.1 to Ad2.2
In short: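 Ad2 variant pre-mRNA (2 ng) with FTZΔi control RNA in HeLa S3 nuclear extract (8 μg) was pre-incubated with compound or DMSO for 15 min at 30 °C. Splicing ran 90 min at 30 °C after adding 0.5 mM ATP, creatine phosphate and MgCl2. Spliced product was quantified by TaqMan RT-qPCR, normalized to DMSO, and curve-fitted.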

[3] = system: Panc 05.04 cells (SF3b K700E mutant); experiment: Cell proliferation and viability, CellTiter-Glo, 72 hours; type: cell-based; conditions: for GI50: geometric mean
In short: (§1)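 Cells grown in RPMI-1640 with 10% FBS (Panc 05.04 with added insulin, 15% FBS total) were exposed to an 11-point half-log dilution, typically 10 μM–100 pM, at 0.1% DMSO for 72 h at 37 °C. ATP content was read by CellTiter-Glo luminescence. Percent inhibition was set against a time-zero plate and DMSO vehicle wells, on a −100% (cidal) to 100% (uninhibited growth) scale.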

[4] = system: NCI-H1568 cells (high MCL1); experiment: as above; type: cell-based; conditions: for GI50: geometric mean
In short: as §1

[5] = Ad2.1 pre-mRNA substrate, read-out: qPCR-IVS-ATS GMean IC50 (nM) Ad2.1
[6] = Ad2.2 pre-mRNA substrate, read-out: qPCR-IVS-ATS GMean IC50 (nM) Ad2.2
[7] = 72 h, PANC0504.1, -100% = cidal, 0% = static, 100% = uninhibited growth
[8] = Panc 05.04, read-out: CTGlo-ATS GMean GI50 (nM) 72 h PANC0504.1, 72 h, PANC0504.1
[9] = 72 h, NCIH1568.1, -100% = cidal, 0% = static, 100% = uninhibited growth
[10] = NCI-H1568, read-out: CTGlo-ATS GMean GI50 (nM) 72 h NCIH1568.1, 72 h, NCIH1568.1
[11] = PANC0504.1 cells, 72 h, −100% cidal, 0% static, 100% maximal growth
[12] = Panc 05.04, read-out: CTGlo-ATS GMean GI50 (nM) 72 h PANC0504.1, PANC0504.1 cells, 72 h
[13] = NCI-H1568, read-out: CTGlo-ATS GMean GI50 (nM) 72 h NCIH1568.1, NCIH1568.1 cells, 72 h
[14] = NCIH1568.1 cells, 72 h, −100% cidal, 0% static, 100% maximal growth

Row | Compound | plasma half-life [1] | IC50 (SF3b complexes) | IC50 [2, 5] | IC50 [2, 6] | Ratio Ad2.1/2.2 [2] | CTGlo-ATS Mean MinResponse % 72 h PANC0504.1 [3, 7] | GI50 [3, 8] | CTGlo-ATS Mean MinResponse % 72 h NCIH1568.1 [4, 9] | GI50 [4, 10] | CTGlo-ATS Mean MinResponse % 72 h PANC0504.1 [3, 11] | GI50 [3, 12] | GI50 [4, 13] | CTGlo-ATS Mean MinResponse % 72 h NCIH1568.1 [4, 14] | GI50 ([3]; Panc 05.04, 72 h, read-out: CTGlo-ATS GMean GI50 (nM) 72 h PANC0504.1, PANC0504.1 cells, 72 h) | GI50 ([4]; NCI-H1568, 72 h, read-out: CTGlo-ATS GMean GI50 (nM) 72 h NCIH1568.1, NCIH1568.1 cells, 72 h)
1 | tremelimumab | approximately 22 days |  |  |  |  |  |  |  |  |  |  |  |  |  | 
2 | C/C(=C\c1cc(F)cc(N2CC[C@H](NS(C)(=O)=O)C2)c1)[C@H]1OC(=O)C[C@H](O)CC[C@H](C)[C@@H](OC(=O)N2CCN(C)CC2)/C=C/[C@@H]1C [Compound 217, [(2S,3S,4E,6R,7S,10R)-2-[(E)-1-[3-fluoro-5-[(3S)-3-(methanesulfonamido)pyrrolidin-1-yl]phenyl]prop-1-en-2-yl]-10-hydroxy-3,7-dimethyl-12-oxo-1-oxacyclododec-4-en-6-yl] 4-methylpiperazine-1-carboxylate] |  | 3.18 nM | 18.4 nM | 16.6 nM | 1.107 | −91.288% | 15 nM | −71.339% | 13.8 nM |  |  |  |  |  | 
3 | C/C(=C\c1cc(S(=O)(=O)N2CCC(O)CC2)ccc1F)[C@H]1OC(=O)C[C@H](O)CC[C@H](C)[C@@H](OC(=O)N2CCN(C)CC2)/C=C/[C@@H]1C [Compound 91, [(2S,3S,4E,6R,7S,10R)-2-[(E)-1-[2-fluoro-5-(4-hydroxypiperidin-l-yl)sulfonylphenyl]prop-1-en-2-yl]-10-hydroxy-3,7-dimethyl-12-oxo-1-oxacyclododec-4-en-6-yl] 4-methylpiperazine-1-carboxylate] |  | 6.04 nM | 14.7 nM | 18.9 nM |  |  |  |  |  | −90.776% | 4.64 nM | 6.86 nM | −64.491% |  | 
4 | C/C(=C\c1cccc(COC(=O)N2CC[C@@H](F)C2)c1)[C@H]1OC(=O)C[C@H](O)CC[C@H](C)[C@@H](OC(=O)N2CCN(C)CC2)/C=C/[C@@H]1C (single isomer, unassigned) [Compound 256] |  | 15.6 nM | > 25000 nM | 112 nM | 222.862 | −88.839% | 43.4 nM | −5.090% | 60.9 nM |  |  |  |  |  | 
5 | C/C(=C\c1ccc2c(F)nn(CC3CC3)c2c1)[C@H]1OC(=O)C[C@H](O)CC[C@H](C)[C@@H](OC(=O)N2CCN(C)CC2)/C=C/[C@@H]1C [Compound 133] |  | 6.99 nM | 1670 nM | 92.5 nM |  |  |  |  |  | −94.957% | 25.6 nM | 17.7 nM | −69.167% |  | 
6 | C/C(=C\c1cc(F)cc(N2CCOCC2)c1)[C@H]1OC(=O)C[C@H](O)CC[C@H](C)[C@@H](OC(=O)N2CC[C@H](N(C)C)C2)/C=C/[C@@H]1C [Compound 244, [(2S,3S,4E,6R,7S,10R)-2-[(E)-1-(3-fluoro-5-morpholin-4-ylphenyl)prop-1-en-2-yl]-10-hydroxy-3,7-dimethyl-12-oxo-1-oxacyclododec-4-en-6-yl] (3S)-3-(dimethylamino)pyrrolidine-1-carboxylate] |  | 3.38 nM | 3580 nM | 38.5 nM | 93.018 | −95.630% | 27.6 nM | −65.165% | 20.2 nM |  |  |  |  |  | 
7 | C/C(=C\c1cc(F)cc(N2CCOCC2)c1)[C@H]1OC(=O)C[C@H](O)CC[C@H](C)[C@@H](OC(=O)N2CCN(C)C(C)(C)C2)/C=C/[C@@H]1C [Compound 246, [(2S,3S,4E,6R,7S,10R)-2-[(E)-1-(3-fluoro-5-morpholin-4-ylphenyl)prop-1-en-2-yl]-10-hydroxy-3,7-dimethyl-12-oxo-1-oxacyclododec-4-en-6-yl] 3,3,4-trimethylpiperazine-1-carboxylate] |  | 5.8 nM | 279 nM | 36.1 nM | 7.730 | −95.467% | 16.5 nM | −68.331% | 12.1 nM |  |  |  |  |  | 
8 | C/C(=C\c1cc(N2CCOCC2)ccc1F)[C@H]1OC(=O)C[C@H](O)CC[C@H](C)[C@@H](OC(=O)N2CCC(N3CCCCC3)CC2)/C=C/[C@@H]1C [Compound 11] |  | 9.49 nM | > 25000 nM | 93.4 nM |  |  |  |  |  | −91.789% | 54.2 nM | 84.4 nM | −43.979% |  | 
9 | C/C(=C\c1cc(F)cc(N2CCOCC2)c1)[C@H]1OC(=O)C[C@H](O)CC[C@H](C)[C@@H](OC(=O)N2CCN(C(C)(C)C)CC2)/C=C/[C@@H]1C [Compound 25] |  | 4.94 nM | 430 nM | 46.4 nM |  |  |  |  |  | −88.378% | 20.5 nM | 20.6 nM | −49.158% |  | 
10 | C/C(=C\c1cc(F)cc(N2CCOCC2)c1)[C@H]1OC(=O)C[C@H](O)CC[C@H](C)[C@@H](OC(=O)N2CCN(C3CCC3)CC2)/C=C/[C@@H]1C [Compound 26] |  | 11.4 nM | 107 nM | 43.5 nM |  |  |  |  |  | −88.278% |  |  | −68.566% | 19 nM | 26.5 nM
11 | CN[C@H]1CCN(c2cc(F)cc(/C=C(\C)[C@H]3OC(=O)C[C@H](O)CC[C@H](C)[C@@H](OC(=O)N4CCN(C)CC4)/C=C/[C@@H]3C)c2)C1 [Compound 39] |  | 26 nM | 63.1 nM | 32 nM |  |  |  |  |  | −89.747% | 50.1 nM | 45.6 nM | −97.412% |  | 
12 | C/C(=C\c1cc(F)cc(N2CC(F)C2)c1)[C@H]1OC(=O)C[C@H](O)CC[C@H](C)[C@@H](OC(=O)N2CCN(C)CC2)/C=C/[C@@H]1C [Compound 38] |  | 3.1 nM | 1020 nM | 25.2 nM |  |  |  |  |  | −88.672% | 14.4 nM | 19.6 nM | −54.093% |  | 
